target: T1, VLA-4 integrins on human U937 cells (interaction between VCAM-1 and VLA-4) (Homo sapiens, UniProt P05556+P13612); test: U937/VCAM-1 cell adhesion test (adhesion of U937 cells to hVCAM-1(1-3)-IgG); assay type: cell-based; details: concentration leading to 50% inhibition of adhesion
T1 construct: the VLA-4 integrins, are offered in their natural form as surface molecules on human U937 cells; host or cells: U937 cells (VLA-4, endogenous); the partner hVCAM-1(1-3)-IgG came from the supernatant of transfected COS cells (ATCC CRL1651)
T1 sequence (P13612 34-1032): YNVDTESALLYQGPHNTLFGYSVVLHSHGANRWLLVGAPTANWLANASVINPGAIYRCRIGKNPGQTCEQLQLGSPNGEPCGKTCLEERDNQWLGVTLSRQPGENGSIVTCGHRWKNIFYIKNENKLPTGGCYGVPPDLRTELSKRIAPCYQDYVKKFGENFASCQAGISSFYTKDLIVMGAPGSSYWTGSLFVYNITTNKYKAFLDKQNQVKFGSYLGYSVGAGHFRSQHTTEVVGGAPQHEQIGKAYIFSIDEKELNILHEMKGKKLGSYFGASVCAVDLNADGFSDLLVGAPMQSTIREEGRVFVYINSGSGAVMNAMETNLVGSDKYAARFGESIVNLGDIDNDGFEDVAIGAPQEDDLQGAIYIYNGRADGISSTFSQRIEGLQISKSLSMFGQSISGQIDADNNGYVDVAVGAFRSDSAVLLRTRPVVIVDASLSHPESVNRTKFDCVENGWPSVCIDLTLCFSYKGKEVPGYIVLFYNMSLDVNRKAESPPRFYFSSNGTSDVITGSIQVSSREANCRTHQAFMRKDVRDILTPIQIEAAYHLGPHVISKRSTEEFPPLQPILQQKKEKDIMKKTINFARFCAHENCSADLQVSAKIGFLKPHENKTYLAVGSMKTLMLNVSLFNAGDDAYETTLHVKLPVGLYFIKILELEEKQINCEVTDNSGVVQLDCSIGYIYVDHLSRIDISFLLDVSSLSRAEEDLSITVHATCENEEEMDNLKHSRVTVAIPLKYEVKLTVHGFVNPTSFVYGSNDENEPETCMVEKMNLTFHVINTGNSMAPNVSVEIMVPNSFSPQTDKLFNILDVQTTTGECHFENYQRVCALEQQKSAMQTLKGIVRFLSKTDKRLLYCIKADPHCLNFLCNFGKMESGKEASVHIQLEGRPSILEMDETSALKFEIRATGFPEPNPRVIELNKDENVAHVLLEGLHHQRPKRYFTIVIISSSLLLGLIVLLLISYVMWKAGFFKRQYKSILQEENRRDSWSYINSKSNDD
T1 sequence (P05556 21-798): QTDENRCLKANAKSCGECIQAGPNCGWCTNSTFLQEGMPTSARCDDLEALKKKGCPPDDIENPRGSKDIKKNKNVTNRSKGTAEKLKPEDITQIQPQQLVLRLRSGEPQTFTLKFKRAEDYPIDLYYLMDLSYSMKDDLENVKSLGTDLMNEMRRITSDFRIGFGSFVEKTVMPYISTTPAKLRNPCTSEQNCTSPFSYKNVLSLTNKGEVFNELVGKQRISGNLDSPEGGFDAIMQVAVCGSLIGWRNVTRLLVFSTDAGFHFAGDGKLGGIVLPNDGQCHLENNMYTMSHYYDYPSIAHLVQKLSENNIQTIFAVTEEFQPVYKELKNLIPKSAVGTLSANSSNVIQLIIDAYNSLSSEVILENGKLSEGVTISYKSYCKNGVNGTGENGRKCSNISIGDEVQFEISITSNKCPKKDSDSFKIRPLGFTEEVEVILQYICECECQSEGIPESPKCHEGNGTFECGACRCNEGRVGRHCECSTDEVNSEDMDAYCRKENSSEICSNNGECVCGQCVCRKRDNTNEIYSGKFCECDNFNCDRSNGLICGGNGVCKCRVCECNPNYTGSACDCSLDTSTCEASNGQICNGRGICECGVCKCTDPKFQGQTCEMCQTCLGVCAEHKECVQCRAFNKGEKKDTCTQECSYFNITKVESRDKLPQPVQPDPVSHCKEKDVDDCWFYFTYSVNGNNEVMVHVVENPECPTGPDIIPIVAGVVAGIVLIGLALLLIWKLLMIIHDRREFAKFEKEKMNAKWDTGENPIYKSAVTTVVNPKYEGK
From the text: As a test method for the activity of the compounds of the formula I on the interaction between VCAM-1 and VLA-4, an assay which is specific for this interaction is used. The cellular binding components, i.e. the VLA-4 integrins, are offered in their natural form as surface molecules on human U937 cells (ATCC CRL 1593) which belong to the group of leucocytes. As specific binding components, recombinant soluble fusion proteins prepared by genetic engineering and consisting of the extracytoplasmic domains of human VCAM-1 and the constant region of a human immunoglobulin of the subclass IgG1 are used.
Assay for the Measurement of the Adhesion of U937 Cells (ATCC CRL 1593) to hVCAM-1 (1-3)-IgG
1. Preparation of Human VCAM-1(1-3)-IgG and Human CD4-IgG
A genetic construct for the expression of the extracellular domains of human VCAM-1 was employed, associated with the genetic sequence of the heavy chain of human immunoglobulin IgG1 (hinge, CH2 and CH3 regions), from Dr. Brian Seed, Massachusetts General Hospital, Boston, USA. The soluble fusion protein hVCAM-1(1-3)-IgG contained the three amino-terminal extracellular immunoglobulin-like domains of human VCAM-1 (Damle and Aruffo, Proc. Natl. Acad. Sci. USA 1991, 88, 6403). CD4-IgG (Zettlmeissl et al, DNA and Cell Biology 1990, 9, 347) served as a fusion protein for negative controls. The recombinant proteins were expressed as soluble proteins after DEAE/dextran-mediated DNA-transfection in COS cells (ATCC CRL1651) according to standard procedures (Ausubel et al., Current protocols in molecular biology, John Wiley & Sons, Inc., 1994).
2. Assay for Measurement of the Adhesion of U937 Cells to hVCAM-1(1-3)-IgG
2.1 96-well microtiter test plates (Nunc Maxisorb) were incubated at room temperature for 1 hour with 100 μl/well of a goat-anti-human IgG antibody solution (10 μg/ml in 50 mM tris, pH 9.5). After removing the antibody solution, washing was carried out once with PBS.
2.2 150 μl/well of a blocking buffer (1% BSA in PBS) were incubated on the plates at room temperature for 0.5 hours. After removing the blocking buffer, washing was carried out once with PBS.
2.3 100 μl per well of a cell culture supernatant of transfected COS cells were incubated on the plates at room temperature for 1.5 hours. The COS cells were transfected with a plasmid which codes for the three N-terminal immunoglobulin-like domains of VCAM-1, coupled to the Fc part of human IgG1 (hVCAM-1(1-3)-IgG). The content of hVCAM-1 (1-3)-IgG was about […]. After removing the culture supernatant, washing was carried out once with PBS.
2.4 The plates were incubated at room temperature for 20 minutes with […] of Fc receptor blocking buffer (1 mg/ml of γ-globulin, 100 mM NaCl, 100 μM MgCl2, 100 μM MnCl2, 100 μM CaCl2, 1 mg/ml BSA in 50 mM HEPES, pH 7.5). After removing the Fc receptor blocking buffer, washing was carried out once with PBS.
2.5 20 μl of binding buffer (100 mM NaCl, 100 μM MgCl2, 100 μM MgCl2, 100 μM CaCl2, 1 mg/ml BSA in 50 mM HEPES, pH 7.5), were initially introduced, the substances to be tested were added in 10 μl of binding buffer and the mixture was incubated for 20 minutes. As controls, antibodies against VCAM-1 (BBT, No. BBA6) and against VLA-4
(Immunotech, No. 0764) were used.
2.6 U937 cells were incubated in Fc receptor blocking buffer for 20 minutes and then pipetted in at a concentration of 1×10^6/ml and in an amount of 100 μl per well ([…]).
2.7 The plates were slowly immersed at an angle of 45° in stop buffer (100 mM NaCl, 100 μM MgCl2, 100 μM MnCl2, 100 μM CaCl2 in 25 mM Tris, pH 7.5) and shaken off. The process was repeated.
2.8 50 μl/well of a dye solution (16.7 μg/ml of Hoechst dye 33258, 4% formaldehyde, 0.5% Triton X-100 in PBS) were then incubated on the plates for 15 minutes.
2.9 The plates were shaken off and slowly immersed at an angle of 45° in stop buffer (100 mM NaCl, 100 μM MgCl2, 100 μM MnCl2, 100 μM CaCl2 in 25 mM Tris, pH 7.5). The process was repeated. […]

| Compound | IC50 [µM] |
| --- | --- |
| CC1(Cc2ccc(NC(=N)N)cc2)C(=O)N(CC(=O)N[C@@H](CC(=O)O)C(=O)N[C@H](C(=O)O)c2ccccc2)C(=O)N1Cc1ccccc1 (stereo partly drawn) [Example 73, ((R,S)-4-(4-Guanidinobenzyl)-3-benzyl-4-methyl-2,5-dioxoimidazolidin-1-yl)acetyl-L-aspartyl-L-phenylglycine] | 125 |
| ((S)-4-(3-Guanidinopropyl)-3-benzyl-2,5-dioxoimidazolidin-1-yl)acetyl-D-glutamyl-L-phenylglycine-L-tyrosine hydrochloride [Example 40] | 27 |
| ((S)-4-(3-Guarndinopropyl)-3-benzyl-2,5-dioxoimidazolidin-1-yl)acetyl-D-aspartyl-L-phenylglycine-L-tyrosine hydrochloride [Example 39] | 8 |
